Legend:
[1] = molecular target: T1, PKD1 (Homo sapiens, UniProt Q15139); assay: radiometric PKD1 inhibition assay, cosolvent interference; format: biochemical; details: stock solutions in 25% 3/NMP
T1 sequence (Q15139 1-912): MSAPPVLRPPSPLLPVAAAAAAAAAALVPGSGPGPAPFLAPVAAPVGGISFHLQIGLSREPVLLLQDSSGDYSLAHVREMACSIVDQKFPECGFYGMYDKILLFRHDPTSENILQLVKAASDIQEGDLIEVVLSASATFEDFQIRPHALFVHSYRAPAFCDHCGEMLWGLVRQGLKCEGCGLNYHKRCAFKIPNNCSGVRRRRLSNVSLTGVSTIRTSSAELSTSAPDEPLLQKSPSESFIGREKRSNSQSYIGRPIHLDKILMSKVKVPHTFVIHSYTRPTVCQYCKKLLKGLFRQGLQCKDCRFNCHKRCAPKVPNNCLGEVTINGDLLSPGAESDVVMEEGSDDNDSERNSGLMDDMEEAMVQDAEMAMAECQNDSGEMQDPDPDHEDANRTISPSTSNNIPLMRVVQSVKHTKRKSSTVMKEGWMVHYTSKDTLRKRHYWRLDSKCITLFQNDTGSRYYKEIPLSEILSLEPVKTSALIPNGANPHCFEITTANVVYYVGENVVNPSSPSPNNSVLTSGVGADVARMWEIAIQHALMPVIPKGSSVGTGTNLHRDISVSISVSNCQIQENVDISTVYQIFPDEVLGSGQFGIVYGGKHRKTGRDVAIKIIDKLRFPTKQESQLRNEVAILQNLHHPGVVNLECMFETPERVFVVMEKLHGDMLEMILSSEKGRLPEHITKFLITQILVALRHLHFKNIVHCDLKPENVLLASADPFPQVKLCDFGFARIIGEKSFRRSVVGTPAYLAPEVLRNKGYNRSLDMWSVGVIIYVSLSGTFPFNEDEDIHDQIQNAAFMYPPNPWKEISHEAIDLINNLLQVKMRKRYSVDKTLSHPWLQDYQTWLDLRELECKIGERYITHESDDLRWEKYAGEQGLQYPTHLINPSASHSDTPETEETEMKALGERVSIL
Description: FIG. 8. Plot of PKD1 activity with compound concentrations of 1 μM. […] The % PKD1 activity is reported as the mean, and error bars represent SEM (n=3). The % PKD1 activity was determined as previously described.
FIG. 9. Plot of PKD1 activity with compound concentrations of 10 μM. […] The % PKD1 activity is reported as the mean, and error bars represent SEM (n=3). The % PKD1 activity was determined as previously described.
Recently, a series of compounds with nanomolar to micromolar inhibitory activity against the serine/threonine protein kinase D (PKD) isoform PKD1 was disclosed (FIG. 7). Several lead structures, especially those containing a pyrimidine moiety, suffered from poor solubility not only in aqueous media but also in DMSO. To test the feasibility of using sulfoxide 3 as a cosolvent for in vitro assays, its use in the radiometric PKD1 inhibition assay was examined. Inhibitory activity at two concentrations (1 μM and 10 μM) was measured using compound stock solutions in three formulations: DMSO, NMP, and 25% 3/NMP (FIGS. 8 and 9).

[2] = log P by shake-flask method; format: physicochemical; details: n-octanol/water, rt (23.5° C.), average of 3 trials, read-out: log P (octanol-water partition coefficient)
Description: Determination of log P Value of 3.
The log P (octanol-water partition coefficient) was determined using the shake-flask method. Three determinations were made. A representative procedure is as follows: a 250-mL separatory funnel was charged with a solution of 3 (50.0 mg) in water (50.0 mL) and n-octanol (50.0 mL). The funnel was capped and inverted 100 times. The funnel and contents were left to stand at rt (23.5° C.) for 40 h. Aliquots of both phases were analyzed by UV/VIS (214 nm for the aqueous layer and 218 nm for the octanol layer), and the concentration in each layer was determined using previously generated calibration curves. In the case of the aqueous layer, a 10-fold dilution was necessary prior to measurement. All measurements were run in triplicate. The log P was determined as log ([3]octanol/[3]aqueous), and the average log P value from the 3 trials was −0.87.

With `CC1(C[S+]([O-])CC2(C)COC2)COC1` [compound 3, 3,3′-Sulfinylbis(methylene)bis(3-methyloxetane)] the “interference with the standard PKD1 inhibition assay” value [1] was “did not interfere” and the logP at 40 h [2] was -0.87.

Source: patent US9546144B2, “Bifunctional compounds” (University of Pittsburgh—of the Commonwealth System of …, priority 2011, dated 2017)
